Test results reported in patent publication US20100267792A1, “Topical Compositions Containing Desthiobiotin and its Derivatives and a Method of Treating Skin” (AVON PRODUCTS, INC., priority 2007, published 2010).

Columns and labels:
[1] = test system: LOXL1 regulatory elements (promoter region of the LOXL1 gene); test: LOXL1 promoter luciferase-reporter assay; type: cell-based; conditions: 0.001% DL-Desthiobiotin, 24 h, human fibrosarcoma line HTI080, LOXL1/pGL3 vector, triplicate tests, p<0.05 compared to vehicle control
From the text: Vector construction, transfection and expression: The promoter region of the LOXL1 gene was isolated and cloned into the pGL3 Luciferase reporter plasmid (Promega) by standard methods known in the art and according to manufacturer's instructions. The LOXL1/pGL3 vector and the control vector pRL-NULL (Promega), containing no regulatory elements, were contransfected into the human fibrosarcoma line HTI080 using LipofectAMINE™ LTX Reagent (Invitrogen) according to manufacturer's directions. Transfected cells were allowed to recover for 24 h. The culture medium was then replaced with fresh medium containing various concentrations of DL-Desthiobiotin, and the transfected cells cultured for an additional 24 h. The cultures were subsequently washed with PBS and exposed to 100 microlit cell lysis buffer/25 cm^2 culture area and gently shaken at room temperature for 30 min. The culture flasks containing the cell lysate were then immediately placed at −80 °C. Determination of reporter activity: The activity of the reporter gene, firefly luciferase, was determined according to the manufacturer's instructions (Dual-Luciferase® Reporter Assay System, Promega). Briefly, the activity of the reporter gene is determined relative to that of a control vector encoding a second luciferase gene, that from Renilla reniformis. […]

Fibrillin-1 mRNA = test: Fibrillin-1 gene expression by quantitative RT-PCR in fibroblasts; type: cell-based; conditions: 0.001% DL-Desthiobiotin, 48 h, normal human dermal fibroblasts, QPCR, compared to solvent control, p<0.05
Description: Cell Treatment: Normal human dermal fibroblasts were plated at 10^6 cells/100 mm tissue culture plates in 10 mls of standard growth medium and incubated at 37° C. and 10% CO2. Approximately 24 hours later, cells were dosed with test actives and solvent controls diluted in fresh growth medium and incubated for 48 hours at 37° C. Following 48-hour incubation, cell medium was removed, and 1 ml of TRIzol® reagent was added to lyse the cells in each plate. Cells from each plate were scraped, passed several times through a pipette, and collected into 1.5 ml centrifuge tubes. The cell lysates were incubated for 5 minutes at 15 to 30° C. to permit the complete dissociation of nucleoprotein complexes, and then stored at −80° C. for RNA isolation. RNA Isolation and RT PCR: RNA was isolated using standard procedures and was dissolved in RNase-free water and stored at −80° C. The concentration of total RNA was determined by using Agilent 2100 Bioanalyzer. […] Reverse Transcriptase (RT) reactions were conducted following the manufacturer's instructions provided by Applied Biosystems, Calif. After the RT step, the reactions were stored at −20° C. for QPCR analysis. QPCR was conducted in a total volume of 20 μl. Applied Biosystems (AB) Universal PCR master mix was used. […]

Structure (SMILES): CC1NC(=O)NC1CCCCCC(=O)O (racemic) [DL-Desthiobiotin]
- increase in expression of the reporter gene [1]: 90%
- increase in Fibrillin-1 gene expression (Fibrillin-1 mRNA): 47.55%
